27 compounds from US8883782B2, “Spiro-tetracyclic ring compounds as beta-secretase modulators and methods of use” (Amgen Inc., priority 2010, dated 2014) can be followed below.

Read-outs that look alike come from different tables or passages of the source.

The subject of test [1] is Aβ40 in conditioned medium of cells stably expressing Amyloid Precursor Protein (APP). The test is described as follows: In vitro BACE cell-based assay (Aβ40 in conditioned medium, sandwich ELISA). As to conditions: read-out: HEK cell assay. In a few lines:
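Conditioned medium from stably APP-expressing cells treated with compound dose series is assayed for Aβ40 by sandwich ELISA with time-resolved fluorescence detection. IC50 is calculated from percent inhibition of Aβ40 against compound concentration.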

Test [2] addresses Beta Secretase enzyme (BACE) (Homo sapiens, UniProt P56817). Description: In vitro enzymatic BACE FRET (fluorescence resonance energy transfer) assay. As to conditions: average IC50, enzyme assay; read-out: BACE 1 FRET assay. The format is biochemical. In a few lines: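 Enzyme activity was measured at pH 4.2 (0.05 M acetate, 10% DMSO final, 100 uM genapol) by cleavage of a 50 nM quenched fluorogenic peptide. After one hour, Tris was added to neutralise the pH and fluorescence was recorded.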

[3] abbreviates: Homo sapiens, HEK293, average IC50, HEK cells.

Sequence of Beta Secretase enzyme (BACE) (P56817 46-501, species assumed): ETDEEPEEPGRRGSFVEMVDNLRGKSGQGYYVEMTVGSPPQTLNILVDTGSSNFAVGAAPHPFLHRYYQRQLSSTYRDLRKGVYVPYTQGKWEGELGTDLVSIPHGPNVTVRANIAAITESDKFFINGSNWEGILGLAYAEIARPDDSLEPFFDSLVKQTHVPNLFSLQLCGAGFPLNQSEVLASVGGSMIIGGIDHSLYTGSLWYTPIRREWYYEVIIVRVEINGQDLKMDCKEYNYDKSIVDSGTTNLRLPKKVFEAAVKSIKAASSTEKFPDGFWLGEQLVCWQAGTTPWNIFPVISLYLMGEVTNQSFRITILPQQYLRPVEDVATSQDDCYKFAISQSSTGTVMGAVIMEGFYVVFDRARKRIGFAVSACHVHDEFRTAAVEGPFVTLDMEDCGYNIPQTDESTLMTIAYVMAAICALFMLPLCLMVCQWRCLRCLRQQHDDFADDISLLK

On to `COc1ccc(-c2cc3c(cn2)Oc2ccc(-c4cccc(Cl)c4)cc2[C@@]32COC(N)=N2)cc1F` [Example 535, (5S)-7-(3-chlorophenyl)-3-(3-fluoro-4-methoxyphenyl)spiro[chromeno[2,3-c]pyridine-5,4′-[1,3]oxazol]-2′-amine], for which the IC50 in test [1] (setting [3]) is 106 nM; in test [2], 0.7 nM.
Consider `NC1=N[C@@]2(CO1)c1cc(-c3cccnc3)ccc1Oc1cnc(-c3ccnc(F)c3)cc12` [Example 536, (5S)-3-(2-fluoro-4-pyridinyl)-7-(3-pyridinyl)spiro[chromeno[2,3-c]pyridine-5,4′-[1,3]oxazol]-2′-amine], for which the values for the IC50 in test [1] (setting [3]) and in test [2] were 27.1 nM and 2.3 nM, respectively.
The corresponding values for `COc1cc(-c2cc3c(cn2)Oc2ccc(-c4cccnc4F)cc2[C@@]32COC(N)=N2)ccc1F` [Example 537, (5S)-3-(4-fluoro-3-methoxyphenyl)-7-(2-fluoro-3-pyridinyl)spiro[chromeno[2,3-c]pyridine-5,4′-[1,3]oxazol]-2′-amine] are 303 nM and 7.6 nM.
Take `COc1cc(-c2cc3c(cn2)Oc2ccc(-c4cccc(Cl)c4)cc2[C@@]32COC(N)=N2)ccc1F` [Example 538, (5S)-7-(3-chlorophenyl)-3-(4-fluoro-3-methoxyphenyl)spiro[chromeno[2,3-c]pyridine-5,4′-[1,3]oxazol]-2′-amine]: the IC50 in test [1] (setting [3]) came to 583 nM; in test [2] it was 5.2 nM.
On the same counts, the results for `NC1=N[C@@]2(CO1)c1cc(-c3cncnc3)ccc1Oc1cnc(-c3ccnc(F)c3)cc12` [Example 539, (5S)-3-(2-fluoro-4-pyridinyl)-7-(5-pyrimidinyl)spiro[chromeno[2,3-c]pyridine-5,4′-[1,3]oxazol]-2′-amine] are 38.2 nM and 1.7 nM.
Consider `NC1=N[C@@]2(CO1)c1cc(-c3cncnc3)ccc1Oc1cnc(N3CCC(F)(F)C3)cc12` [Example 540, (5S)-3-(3,3-difluoro-1-pyrrolidinyl)-7-(5-pyrimidinyl)spiro[chromeno[2,3-c]pyridine-5,4′-[1,3]oxazol]-2′-amine], for which the IC50 in test [1] (setting [3]) amounted to 7.2 nM; in test [2] it was 0.8 nM.
For `NC1=N[C@@]2(CO1)c1cc(-c3cccnc3F)ccc1Oc1cnc(-c3cc(F)nc(F)c3)cc12` [Example 541, (5S)-3-(2,6-difluoro-4-pyridinyl)-7-(2-fluoro-3-pyridinyl)spiro[chromeno[2,3-c]pyridine-5,4′-[1,3]oxazol]-2′-amine], the IC50 in test [1] (setting [3]) worked out at 12.3 nM; in test [2], 0.4 nM.
Consider `NC1=N[C@@]2(CO1)c1cc(-c3cncnc3)ccc1Oc1cnc(-c3cc(F)nc(F)c3)cc12` [Example 542, (5S)-3-(2,6-difluoro-4-pyridinyl)-7-(5-pyrimidinyl)spiro[chromeno[2,3-c]pyridine-5,4′-[1,3]oxazol]-2′-amine], for which the figures for the IC50 in test [1] (setting [3]) and in test [2] were 18.8 nM and 1.1 nM, respectively.
As for `CC1(C)C=C(c2cc3c(cn2)Oc2ccc(-c4cncnc4)cc2[C@@]32COC(N)=N2)CCO1` [Example 543, (5S)-3-(6,6-dimethyl-3,6-dihydro-2H-pyran-4-yl)-7-(5-pyrimidinyl)spiro[chromeno[2,3-c]pyridine-5,4′-[1,3]oxazol]-2′-amine], the IC50 was determined as 24.6 nM in test [1] (average IC50, HEK cells) and 1.6 nM in test [2].
As for `CC1(C)C[C@H](c2cc3c(cn2)Oc2ccc(-c4cncnc4)cc2[C@@]32COC(N)=N2)CCO1` [Example 544, (5S)-3-((4R)-2,2-dimethyltetrahydro-2H-pyran-4-yl)-7-(5-pyrimidinyl)spiro[chromeno[2,3-c]pyridine-5,4′-[1,3]oxazol]-2′-amine], the IC50 in test [1] (setting [3]) was found to be 122 nM; in test [2], 8.4 nM.
As to `NC1=N[C@@]2(CO1)c1cc(-c3cccnc3F)ccc1Oc1cnc(-c3ccnc(C(F)(F)F)c3)cc12` [Example 545, (5S)-7-(2-fluoro-3-pyridinyl)-3-(2-(trifluoromethyl)-4-pyridinyl)spiro[chromeno[2,3-c]pyridine-5,4′-[1,3]oxazol]-2′-amine], the IC50 stood at 406 nM in test [1] (setting [3]) and 5.6 nM in test [2].
In the case of `NC1=N[C@@]2(CO1)c1cc(-c3cccc(Cl)c3)ccc1Oc1cnc(-c3ccc(F)c(F)c3)cc12` [Example 550, (5S)-7-(3-chlorophenyl)-3-(3,4-difluorophenyl)spiro[chromeno[2,3-c]pyridine-5,4′-[1,3]oxazol]-2′-amine], the IC50 in test [1] (setting [3]) was determined as 127 nM; in test [2] it was 0.5 nM.
For `Cc1cc(-c2ccc3c(c2)[C@@]2(COC(N)=N2)c2cc(C4=CCOCC4)ncc2O3)ccc1F` [Example 551, (5S)-3-(3,6-dihydro-2H-pyran-4-yl)-7-(4-fluoro-3-methylphenyl)spiro[chromeno[2,3-c]pyridine-5,4′-[1,3]oxazol]-2′-amine], the figures for the IC50 in test [1] (setting [3]) and in test [2] were 80.7 nM and 3.4 nM, respectively.
In the case of `CC1(COc2cc(F)c3c(c2)[C@]2(COC(N)=N2)c2cc(-c4cncc(C#N)c4)ccc2O3)COC1` [Example 552, 5-((4S)-2-amino-5′-fluoro-7′-((3-methyl-3-oxetanyl)methoxy)spiro[1,3-oxazole-4,9′-xanthen]-2′-yl)-3-pyridinecarbonitrile], the IC50 in test [1] (setting [3]) came out at 3.1 nM; in test [2], 0.9 nM.
On to `N#Cc1cncc(-c2ccc3c(c2)[C@@]2(COC(N)=N2)c2cc(OCC4CCOCC4)cc(F)c2O3)c1` [Example 553, 5-((4S)-2-amino-5′-fluoro-7′-(tetrahydro-2H-pyran-4-ylmethoxy)spiro[1,3-oxazole-4,9′-xanthen]-2′-yl)-3-pyridinecarbonitrile], for which the IC50 in test [1] (setting [3]) was determined as 13.2 nM; in test [2], 2.4 nM.
On to `Cn1cc(-c2cc(F)c3c(c2)[C@]2(COC(N)=N2)c2cc(-c4cncc(C#N)c4)ccc2O3)cn1` [Example 554, 5-((4S)-2-amino-5′-fluoro-7′-(1-methyl-1H-pyrazol-4-yl)spiro[1,3-oxazole-4,9′-xanthen]-2′-yl)-3-pyridinecarbonitrile], for which the IC50 in test [1] (setting [3]) worked out at 6.3 nM; in test [2] it was 1.6 nM.
As to `COc1cc(F)c2c(c1)[C@@]1(COC(N)=N1)c1cc(-c3cncnc3)c(F)cc1O2` [Example 555, (4R)-3′,5′-difluoro-7′-methoxy-2′-(5-pyrimidinyl)spiro[1,3-oxazole-4,9′-xanthen]-2-amine], the values for the IC50 in test [1] (setting [3]) and in test [2] were 1700 nM and 290 nM, respectively.
As to `COc1cc(F)c2c(c1)[C@]1(COC(N)=N1)c1cc(-c3cncnc3)c(F)cc1O2` [Example 556, (4S)-3′,5′-difluoro-7′-methoxy-2′-(5-pyrimidinyl)spiro[1,3-oxazole-4,9′-xanthen]-2-amine], the IC50 in test [1] (setting [3]) was 146 nM; in test [2], 8.9 nM.
On the same counts, the results for `N#Cc1cncc(-c2ccc3c(c2)[C@@]2(COC(N)=N2)c2cc(C4=CCOCC4)cc(F)c2O3)c1` [Example 557, 5-((4S)-2-amino-7′-(3,6-dihydro-2H-pyran-4-yl)-5′-fluorospiro[1,3-oxazole-4,9′-xanthen]-2′-yl)-3-pyridinecarbonitrile] are 3.7 nM and 0.7 nM.
With `N#Cc1cncc(-c2ccc3c(c2)[C@@]2(COC(N)=N2)c2cc(N4CCOCC4)cc(F)c2O3)c1` [Example 558, 5-((4S)-2-amino-5′-fluoro-7′-(4-morpholinyl)spiro[1,3-oxazole-4,9′-xanthen]-2′-yl)-3-pyridinecarbonitrile], the figures for the IC50 in test [1] (setting [3]) and in test [2] were 5.7 nM and 1.7 nM, respectively.
As to `NC1=N[C@@]2(CO1)c1cc(-c3ccccc3)ccc1Oc1c(F)cc(-c3cccnn3)cc12` [Example 559, (4S)-4′-fluoro-7′-phenyl-2′-(3-pyridazinyl)spiro[1,3-oxazole-4,9′-xanthen]-2-amine], the IC50 amounted to 151 nM in test [1] (setting [3]) and 12.2 nM in test [2].
On to `C[C@@H]1CN(c2cc(F)c3c(c2)[C@]2(COC(N)=N2)c2cc(-c4cncc(C#N)c4)ccc2O3)C[C@H](C)O1` [Example 560, 5-((4S)-2-amino-7′-((2R,6S)-2,6-dimethyl-4-morpholinyl)-5′-fluorospiro[1,3-oxazole-4,9′-xanthen]-2′-yl)-3-pyridinecarbonitrile], for which the IC50 is 14.2 nM in test [1] (setting [3]) and 2.8 nM in test [2].
The corresponding values for `CC1(/C=C/c2cc(F)c3c(c2)[C@]2(COC(N)=N2)c2cc(-c4cccnc4F)ccc2O3)COC1` [Example 561, (4S)-4′-fluoro-7′-(2-fluoro-3-pyridinyl)-2′-((E)-2-(3-methyl-3-oxetanyl)ethenyl)spiro[1,3-oxazole-4,9′-xanthen]-2-amine] are 3.7 nM and 2 nM.
On to `CC1(COc2cc(F)c3c(c2)[C@]2(COC(N)=N2)c2cc(-c4cccc(C#N)c4)ccc2O3)COC1` [Example 562, 3-((4S)-2-amino-5′-fluoro-7′-((3-methyl-3-oxetanyl)methoxy)spiro[1,3-oxazole-4,9′-xanthen]-2′-yl)benzonitrile], for which the IC50 in test [1] (setting [3]) amounted to 5.8 nM; in test [2], 2 nM.
On to `Cn1cc(-c2cc(F)c3c(c2)[C@]2(COC(N)=N2)c2cc(-c4cccc(C#N)c4)ccc2O3)cn1` [Example 563, 3-((4S)-2-amino-5′-fluoro-7′-(1-methyl-1H-pyrazol-4-yl)spiro[1,3-oxazole-4,9′-xanthen]-2′-yl)benzonitrile], for which the IC50 came to 12.4 nM in test [1] (setting [3]) and 1.3 nM in test [2].
With `N#Cc1cccc(-c2ccc3c(c2)[C@@]2(COC(N)=N2)c2cc(N4CCOCC4)cc(F)c2O3)c1` [Example 564, 3-((4S)-2-amino-5′-fluoro-7′-(4-morpholinyl)spiro[1,3-oxazole-4,9′-xanthen]-2′-yl)benzonitrile], the IC50 came out at 9.2 nM in test [1] (setting [3]) and 1.6 nM in test [2].
The corresponding values for `CN(C)c1ccc(-c2cc3c(cn2)Oc2ccc(-c4cccnc4F)cc2[C@@]32COC(N)=N2)cc1` [Example 567, (5S)-3-(4-(dimethylamino)phenyl)-7-(2-fluoro-3-pyridinyl)spiro[chromeno[2,3-c]pyridine-5,4′-[1,3]oxazol]-2′-amine] are 74.6 nM and 4.6 nM.
